Experimental data reported in PMC9572083, “Hybrids of 1,4-Quinone with Quinoline Derivatives: Synthesis, Biological Activity, and Molecular Docking with DT-Diaphorase (NQO1)” (Molecules, 2022).

Experiments:
[1] = molecular target: T1, NQO1 (DT-diaphorase, EC 1.6.5.5, human recombinant) (Homo sapiens, UniProt P15559); experiment: NQO1 substrate NADPH recycling enzymatic assay; assay type: biochemical; settings: compound 10 µmol/L, pH 7.4, 25 °C, absorbance at 340 nm
T1 construct: purchased Sigma-Aldrich
T1 sequence (P15559 whole entry): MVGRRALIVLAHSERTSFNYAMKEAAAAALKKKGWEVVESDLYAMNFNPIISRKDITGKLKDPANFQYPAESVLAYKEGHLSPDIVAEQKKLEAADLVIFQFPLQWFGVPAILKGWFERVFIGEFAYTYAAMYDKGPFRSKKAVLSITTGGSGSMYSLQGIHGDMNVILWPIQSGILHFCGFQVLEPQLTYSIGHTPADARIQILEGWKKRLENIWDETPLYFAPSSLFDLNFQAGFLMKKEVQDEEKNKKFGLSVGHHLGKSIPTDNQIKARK
Method: The interaction between 1,4-quinone moiety of hybrid and NQO1 protein leads to reduction in quinone to hydroquinone and production of reactive oxide form (ROS). According to a literature method, the ability of hybrids 11–14 and streptonigrin (ST) to be a substrate for NQO1 was examined by measuring the oxidation of NADPH to NADP^+ [29, 32].
Compounds 11–14 (10 µmol/L) were tested as NQO1 substrates using the NADPH recycling assay according to the literature method. The recombinant NQO1 (DT-diaphorase, EC 1.6.5.5, human recombinant, Sigma-Aldrich) was used, and the oxidation of NADPH to NADP^+ was measured at the absorption wavelength of 340 nm on the BioTek 800TS microplate reader (BioKom, Janki, Poland). Compounds were dissolved in dimethyl sulfoxide (2 µL) and added to the 96-well plate. The NQO1 protein (1.4 µg/mL) in 50 mmol/L potassium phosphate buffer (pH = 7.4) was added to each well (198 µL) (Nunc Thermo Fisher Scientific, Waltham, MA, USA). Once the 96-well plate was filled with the assay solutions, except the NADPH solution, it was placed into the instrument and left to sit for 5 min before starting the measurements. The enzymatic reaction was initiated by automatically dispensing the NADPH solution into the wells, and data were recorded at 10 s intervals for 5 min at 25 °C. The linear part of the absorbance vs. time graphs (the first 20 s to 1 min) was fitted, and the slopes were calculated. NADPH oxidation rates were compared with reactions lacking the tested compound. Initial velocities were calculated, and data were expressed as µmol NADPH/µmol NQO1/min. All reactions were carried out at least in triplicate.

Colo-829 cells = experiment: Cytotoxic activity, WST-1 assay, melanoma Colo-829; assay type: cell-based, human; settings: for SI (IC50 HFF-1/IC50 cancer line) Colo-829: HFF-1 vs Colo-829; for IC50: Homo sapiens, melanoma Colo-829, 72 h, WST-1
From the text: (§1) Anticancer activity of compounds 11–14 was designated against following human cancer cell lines: melanoma (Colo-829), ovarian cancer (SK-OV-3), breast cancer (MDA-MB-231, T47D and MCF-7), lung cancer (A549) and normal fibroblasts (HFF-1). As a reference substance, the doxorubicin was used. The results are presented in Table 1 as IC50, where IC50 means the concentration of tested compounds (µM) causing the growth inhibition of 50% for given tumor cells. The negative value (Neg.) means that the IC50 is higher than 30 µM. Selectivity index (SI) as the ratio of the IC50 for normal fibroblast (HFF-1) to IC50 of the corresponding cell line, is presented in Table S2.
(§2) Compounds 7–14 and doxorubicin were tested for cytotoxic activity in vitro against panel of human cancer cell lines: melanoma (Colo-829, ATCC, Rockville, MD, USA), ovarian cancer (SK-OV-3, ATCC, Rockville, MD, USA), breast cancer (T47D, MCF-7, and MDA-MB-231, ATCC, Rockville, MD, USA) and lung cancer (A549, ATCC, Rockville, MD, USA). The cultured cells were kept at 37 °C and 5% CO2. The cells were seeded (5 × 10^4 cells/well/[…] DMEM supplemented with 10% FCS and streptomycin/penicillin) using 96-well plates (Nunc Thermo Fisher Scientific, Waltham, MA, USA). The tested compounds 7–14 with the concentration of 1–100 µg/mL DMSO were inducted with the cancer cells for 72 h. The WST-1-formazan (proliferation reagent WST-1 assay, Roche Diagnostics, Mannheim, Germany) was detected using a microplate reader at 450 nm. Results were expressed as a mean value of at least three independent experiments performed in triplicate.

SK-OV-3 cells = experiment: Cytotoxic activity, WST-1 assay, ovarian cancer SK-OV-3; assay type: cell-based, human; settings: for SI (IC50 HFF-1/IC50 cancer line) SK-OV-3: HFF-1 vs SK-OV-3; for IC50: Homo sapiens, ovarian cancer SK-OV-3, 72 h, WST-1
From the text: as §1, §2

MDA-MB-231 cells = experiment: Cytotoxic activity, WST-1 assay, breast cancer MDA-MB-231; assay type: cell-based, human; settings: for SI (IC50 HFF-1/IC50 cancer line) MDA-MB-231: HFF-1 vs MDA-MB-231; for IC50: Homo sapiens, breast cancer MDA-MB-231, 72 h, WST-1
From the text: as §1, §2

T47D cells = experiment: Cytotoxic activity, WST-1 assay, breast cancer T47D; assay type: cell-based, human; settings: for SI (IC50 HFF-1/IC50 cancer line) T47D: HFF-1 vs T47D; for IC50: Homo sapiens, breast cancer T47D, 72 h, WST-1
From the text: as §1, §2

MCF-7 cells = experiment: Cytotoxic activity, WST-1 assay, breast cancer MCF-7; assay type: cell-based, human; settings: for SI (IC50 HFF-1/IC50 cancer line) MCF-7: HFF-1 vs MCF-7; for IC50: Homo sapiens, MCF7, breast cancer MCF-7, 72 h, WST-1
From the text: as §1, §2

A549 cells = experiment: Cytotoxic activity, WST-1 assay, lung cancer A549; assay type: cell-based, human; settings: for SI (IC50 HFF-1/IC50 cancer line) A549: HFF-1 vs A549; for IC50: Homo sapiens, lung cancer A549, 72 h, WST-1
From the text: as §1, §2

HFF-1 cells = experiment: Cytotoxic activity, WST-1 assay, normal fibroblasts HFF-1; assay type: cell-based; settings: Homo sapiens, normal fibroblasts HFF-1, 72 h
From the text: as §1, §2

TP53 = experiment: Transcriptional activity of TP53 gene in A549 cells (RT-QPCR); assay type: cell-based, human; settings: 24 h, concentration equal to half of IC50
Method: (§3) The mechanism of anticancer activity was determined by detection of transcriptional activity of the genes encoding a proliferation marker (H3 histone), cell cycle regulators (p53 and p21), and the mitochondrial apoptosis pathway (BCL-2 and BAX) (Figure 3a–d). The derivatives 11b, 12b, 13b, and 14b were selected for this study.
(§4) Transcriptional activity of genes (TP53, CDKN1A, BAX, and BCL-2) was rated by real-time RT-QPCR using Opticon™ DNA Engine system (MJ Research, Watertown, NY, USA) and QuantTect® SYBR® Green RT-PCR Kit (Qiagen, Hilden, Germany). Cultured cells were incubated with tested compounds for 24 h. RNA was extracted using Quick-RNA™ MiniPrep kit columns (Zymo Research, Irvine, CA, USA). The extracted RNA was assessed qualitatively and quantitatively. The amount and purity of the total RNA in extracts were determined spectrophotometrically (HP8452A apparatus, Hewlett Packard, Waldbronn, Germany).

H3 histone gene = experiment: Transcriptional activity of H3 histone gene in A549 cells (RT-QPCR); assay type: cell-based, human; settings: 24 h, concentration equal to half of IC50
Method: as §3, §4

CDKN1A = experiment: Transcriptional activity of CDKN1A gene in A549 cells (RT-QPCR); assay type: cell-based, human; settings: 24 h, concentration equal to half of IC50
Method: as §3, §4

SMILES | NQO1 activity (enzymatic conversion rate) [1] [µmol NADPH/µmol NQO1/min] | SI (IC50 HFF-1/IC50 cancer line) Colo-829 (Colo-829 cells) | IC50 (Colo-829 cells) [nM] | SI (IC50 HFF-1/IC50 cancer line) SK-OV-3 (SK-OV-3 cells) | IC50 (SK-OV-3 cells) [nM] | SI (IC50 HFF-1/IC50 cancer line) MDA-MB-231 (MDA-MB-231 cells) | IC50 (MDA-MB-231 cells) [nM] | SI (IC50 HFF-1/IC50 cancer line) T47D (T47D cells) | IC50 (T47D cells) [nM] | SI (IC50 HFF-1/IC50 cancer line) MCF-7 (MCF-7 cells) | IC50 (MCF-7 cells) [nM] | SI (IC50 HFF-1/IC50 cancer line) A549 (A549 cells) | IC50 (A549 cells) [nM] | IC50 (HFF-1 cells) [nM] | TP53 gene expression (TP53) | melting point [°C] | Number of mRNA copies of the histone H3 gene (H3 histone gene) | CDKN1A expression (copies of mRNA) (CDKN1A)
Cc1ccc2cccc(OC3=C(Cl)C(=O)c4cccnc4C3=O)c2n1 [Compound 11b, 6-chloro-7-[(2-methylquinolin-8-yl)oxy]quinoline-5,8-dione] | 1294 ± 51 | 13.56 | 1920 ± 110 | 15.40 | 1690 ± 30 | 15.87 | 1640 ± 150 | 10.76 | 2420 ± 130 | 12.34 | 2110 ± 80 | 14.62 | 1780 ± 210 | 26100 ± 1020 | significant increase | 110 to 112 |  | 
Cc1ccc2cccc(OC3=C(Cl)C(=O)c4ccccc4C3=O)c2n1 [Compound 14b, 2-chloro-3-[(2-methylquinolin-8-yl)oxy]naphthalene-1,4-dione] | 1260 ± 15 | 0.74 | 15000 ± 1030 | 0.66 | 16800 ± 590 | 0.58 | 19200 ± 620 | 0.50 | 22200 ± 1030 | 0.68 | 16300 ± 1080 | 5.30 | 2100 ± 290 | 11100 ± 1620 | slight increase | 100 to 102 | reduce the amount of mRNA copies by half | slight effect
O=C1C(Cl)=C(Oc2cccc3ccc(Cl)nc23)C(=O)c2ccccc21 [Compound 14d, 2-chloro-3-[(2-chloroquinolin-8-yl)oxy]naphthalene-1,4-dione] | 1001 ± 43 | 0.80 | 18000 ± 2010 | 1.01 | 14100 ± 520 | 6.99 | 2050 ± 350 |  | > 30000 | 1.23 | 11700 ± 1340 | 1.76 | 8130 ± 1020 | 14300 ± 1230 |  | 101 to 103 |  | 
Cc1ccc2c(n1)C(=O)C(Oc1cccc3ccc(C)nc13)=C(Cl)C2=O [Compound 12b, 6-chloro-2-methyl-7-[(2-methylquinolin-8-yl)oxy]quinoline-5,8-dione] | 1437 ± 42 | 6.01 | 1690 ± 80 | 6.81 | 1490 ± 210 | 6.46 | 1570 ± 190 | 5.34 | 1900 ± 230 | 5.70 | 1780 ± 30 | 7.10 | 1430 ± 60 | 10200 ± 1330 | significant increase | 130 to 132 |  | 
O=Cc1ccc2cccc(OC3=C(Cl)C(=O)c4ccncc4C3=O)c2n1 [Compound 13c, 8-[(6-chloro-5,8-dioxo-5,8-dihydroisoquinolin-7-yl)oxy]quinoline-2-carbaldehyde] | 318 ± 19 | 38.97 | 340 ± 280 | 41.41 | 320 ± 10 | 17.67 | 750 ± 90 | 25.48 | 520 ± 80 | 14.89 | 890 ± 30 | 10.04 | 1320 ± 320 | 13200 ± 850 |  | 166 to 168 |  | 
Cc1ccc2cccc(OC3=C(Cl)C(=O)c4ccncc4C3=O)c2n1 [Compound 13b, 6-chloro-7-[(2-methylquinolin-8-yl)oxy]isoquinoline-5,8-dione] | 1143 ± 36 | 66.77 | 390 ± 110 | 53.14 | 490 ± 50 | 236.73 | 110 ± 10 | 20.19 | 1290 ± 30 | 42.69 | 610 ± 90 | 45.68 | 570 ± 20 | 26000 ± 1600 | significant increase | 110 to 112 | reduce the amount of mRNA copies by half | highest increase
Cc1ccc2c(n1)C(=O)C(Oc1cccc3ccc(Cl)nc13)=C(Cl)C2=O [Compound 12d, 6-chloro-2-methyl-7-[(2-chloroquinolin-8-yl)oxy]quinoline-5,8-dione] | 890 ± 21 | 0.78 | 13100 ± 490 | 0.67 | 15400 ± 480 | 0.66 | 15600 ± 790 | 0.64 | 16200 ± 980 | 0.59 | 17400 ± 820 | 7.04 | 1460 ± 60 | 10300 ± 1650 |  | 120 to 122 |  | 
